Test results published in patent US6673937B2, “Syntheses and methods of use of new antimitotic agents” (The University of Pittsburgh, priority 2000, dated 2004).

Assays:
[1] = test system: tsFT210 cells; experiment: Flow cytometry, G2/M arrest in tsFT210 cells; type: cell-based, mouse; details: 2.5 to 10 μM, 6 hours after release at 32.0° C.
Procedure: Oncogene 18:6989-6996, Th′ng JP, Wright PS, Hamaguchi J, Lee MG, Norbury CJ, Nurse P and Bradbury EM (1990) The FT210 cell line is a mouse G2 phase mutant with a temperature-sensitive CDC2 gene product. Cell 63:313-324.). Cell proliferation was blocked at G2 phase by incubation at 39.4° C. for 17 h. The synchronized cells were then released by re-incubating at 32.0° C. and treated immediately with 0-10 μM SR-7, 1 μM nocodazole or 100 EM SC-ααδ9, respectively, to probe for G2/M arrest. […] The harvested cells were stained with a solution containing 50 μg/ml propidium iodide and 250 μg/ml RNase A. Flow cytometry analysis was conducted with a Becton Dickinson FACS Star (Franklin Lakes, N.J.). […] This G2/M retention at 4C is probably due to the extended cell cycle blockage at 39.4° C. (Osada H, Cui CB, Onose R and Hanaoka F (1997) Screening of cell cycle inhibitors from microbial metabolites by a bioassay using a mouse cdc2 mutant cell line, tsFT210. Bioorg Med Chem 5:193-203). […] SC-ααδ9 is an inhibitor of the Cdc25 family of phosphatases that controls cell cycle checkpoints (Rice RL, Rusnak JM, Yokokawa F, Yokokawa S, Messner DJ, Boynton AL, Wipf P and Lazo JS (1997) A targeted library of small molecule, tyrosine and dual specificity phosphatase inhibitors derived from a rational core design and random side chain variation. Biochemistry 36:15965-15974).

[2] = test system: tsFT210 cells; experiment: Flow cytometry, G1 transition in tsFT210 cells; type: cell-based, mouse; details: 5 or 10 μM, additional 6 hours
[3] = test system: Cdk1; experiment: Western blotting for Cdk1 phosphorylation status in tsFT210 cells; type: cell-based, mouse; details: 10 or 20 μM, 6 hours
Procedure: tsFT210 cells were harvested using the same procedure for cell synchronizing and drug exposure as described above for the G2/M flow cytometric analysis. The protein lysates were analyzed by Western blotting for Cdk1 as described previously (Tamura K, Southwick EC, Kerns J, Rosi K, Carr BI, Wilcox C and Lazo JS (2000) Cdc25 inhibition and cell cycle arrest by a synthetic thioalkyl vitamin K analogue. Cancer Res 60:1317-1325.). The inventors used Cdk1 isolated from human MCF-7 cells to assay for in vitro inhibition of enzyme activity because of available antibodies and convenience. Asynchronous cells grown at 37° C. in 5% CO2 in DMEM containing 10% fetal bovine serum were treated with lysis buffer and harvested as previously described (Vogt A, Wang AS, Johnson CS, Fabisiak JP, Wipf P and Lazo JS (2000) In vivo antitumor activity and induction of insulin-like growth factor-1 resistant apoptosis by SC-ααδ9. J Pharmacol Exptl Therap 292:530-537.). Cdk1 kinase activity assay was performed as previously described (Yu L, Orlandi L, Wang P, Orr MS, Senderowicz AM, Sausville EA, Silvestrini R, Watanabe N, Piwnica-Worms H, O° Connor PM (1998) UCN-01 arogates G2 arrest through a Cdc2-dependent pathway that is associated with inactivation of the WeelHu kinase and activation of the Cdc25C phosphatase. J Biol Chem 273: 33455-33464.). […] Histone H1 was separated from other proteins by SDS-PAGE and analyzed for incorporation of radioactive phosphate with a Molecular Dynamics STORM 860 Phospholmager (Sunnyvale, CA).
The major controlling molecule for G2/M transition is the cyclin dependent kinase, Cdk1, whose cellular activity is tightly regulated by phosphorylation (Pines J (1999) Four-dimensional control of the cell cycle. Nature Cell Biol 1:E73-79., Hunter T and Pines J (1994) Cyclins and cancer II: cyclin D and CDK inhibitors come of age. Cell 79:573-582). […] The protein lysates were analyzed by Western blotting for Cdk1 content and phosphorylation status as described elsewhere herein. […]

[4] = test system: recombinant Cdc25; experiment: In vitro inhibition of recombinant Cdc25; type: biochemical; details: 30 μM, data not shown

SMILES: O=C1C=CC2(Oc3cccc4cccc(c34)O2)c2cccc(OCc3ccco3)c21 [SR-7, 8-(furan-2-ylmethoxy)-1-oxo-1,4-dihydronaphthalene-4-spiro-2′-naphto [1″,8″-de][1′,3′] dioxin]
- G2/M cell cycle transition [1]: concentration-dependent arrest in the G2/M phase
- G2/M cell cycle transition ([1]; listed as 27): can arrest mammalian cells in the G2/M phase
- G1 transition [2]: not delayed at G1
- Cdk1 phosphorylation status [3]: Cdk1 was completely dephosphorylated
- inhibition of recombinant Cdc25 activity [4]: no inhibition
